Our source for the monolayer permeability values is patent publication US11026945B2, “Protein kinase RNA-like endoplasmic reticulum kinase (PERK) inhibitors for prevention and/or treatment of lung injury and/or inflammation” (THE TRUSTEES OF THE UNIVERSITY OF PENNSYLVANIA, priority 2016, dated 2021).

In the experiment the test system is AEC-I monolayers. Kind of experiment: Monolayer permeability, FITC-labeled streptavidin binding to biotin. As to conditions: stretched monolayers (25%, 6 hrs), 1 μM PI pretreatment 18 hours. The experiment is classed as cell-based, rat. From the text:
To obtain monolayer rat type-II alveolar epithelial cells (AEC-II), cells were isolated from Sprague-Dawley rats (250-300 g, N=30 purchased from Charles River Laboratories, Wilmington, Mass.) described by Tschumperlin D J, Margulies SS. Equibiaxial deformation-induced injury of alveolar epithelial cells in vitro. Am J Physiol. 1998; 275(6 Pt 1):L1173-83. Epub 1998/12/09 (PubMed PMID: 9843855), with modifications. Briefly, animals were killed and the lungs were harvested. The lung tissue was digested with elastase at 37° C. and distal airways were isolated. Following, cells were placed on rat IgG coated containing no serum for 90 minutes to eliminate contaminating leukocytes and parenchymal cells. This isolation method yielded approximately 95% pure alveolar epithelial cell population. 1.3 million cells were plated on 1 cm diameter fibronectin-coated custom made silastic membranes. In permeability studies, biotin were mixed with fibronectin and membranes were pretreated with oxygen plasma coating to ensure homogenous distribution of the fibronectin. Cells were cultured with 10% fetal bovine serum (FBS)-containing Minimal Essential Medium (MEM) containing low dose antibiotics for 3 days. 32 to 40 monolayers were per rat. On the 3rd day, matured monolayers were randomized to be exposed to one of the treatments for 24 hours (N=3 monolayers/treatment): • A. RNAiMax transfection reagent treatment using serum free media (Opti-MEM, Thermo Fisher Scientific, Waltham, Mass.). This is a negative control for siRNA experiments where serum free media is used for improved transfection efficiency; • B. non-targeting siRNA treatment ([…], Dharmacon) serves a negative control for transfection; • C. […]
The dose of siRNA and PI treatment was selected based on dose-response curves above (FIG. 2A-FIG. 2E). […] All membranes were treated with FITC-labeled streptavidin (Thermo Fisher Scientific) at the end of the experiment and light emission was detected at 488 nm with fluorescent microscopy (Nikon TE300, Melville, N.Y.). […]

As to `Cn1cc(-c2ccc3c(c2)CCN3C(=O)Cc2cccc(C(F)(F)F)c2)c2c(N)ncnc21` [PI, 1-[5-(4-Amino-7-methyl-7H-pyrrolo[2,3-d]pyrimidin-5-yl)indolin-1-yl]-2-(3-trifluoromethylphenyl)ethanone], the monolayer permeability entry is given as “significantly reduced”.
